The values that follow come from patent US9145411B2, “Substituted amino-pyrimidine derivatives” (Asana Biosciences, LLC, priority 2012, dated 2015).

One experiment addresses PI3 kinase isoform δ (Homo sapiens, UniProt O00329). Kind of experiment: PI3 Kinase TR-FRET assay, isoform δ. It is filed as biochemical. To be noted: read-out: inhibition of PI3 kinase isoform δ, IC50. The method, then: The ability of compounds of the invention to inhibit PI3K activity was determined in a homogeneous TR-FRET assay using a PI3K assay kit (Millipore, USA; cat #33-016) according to manufacturer's instructions. PI3-Kinases (isoforms α, β, γ and δ) catalyze the phosphorylation of phosphatidylinositol, PIP2 to PIP3 in the presence of ATP and Mg^2+. The PIP3 product is detected by displacement of biotin-PIP3 from an energy transfer complex consisting of Europium labeled anti-GST monoclonal antibody, a GST-tagged PH domain, biotinylated PIP3 and Streptavidin-APC. Excitation of Europium in the complex results in an energy transfer to the APC and a fluorescence emission at 665 nm. The PIP3 product displaces biotin-PIP3 from the complex resulting in a loss of energy transfer and thus a decrease in signal.
To test for the ability of compounds to inhibit the activity of PI3Kα (wild-type), exemplary compounds of formula (I) were dissolved in DMSO and directly distributed into 384-well plates at a volume of 0.5 μL. 14.5 μL of P110/P85α/PIP2 mixture in buffer (obtained from the Millipore kit) containing MgCl2 (40 mM) and DTT (5 mM) was added to compound wells and incubated for 60 minutes at room temperature. P110/P85α was expressed in SF9 insect cells and purified nickel column extraction. Five ng of wild-type P110/P85α was used in the assay. The kinase reaction was started by the addition of ATP. The assay concentrations of both PIP2 and ATP were 10 μM. The reaction mixture was incubated for 30 minutes at room temperature and was terminated by the addition of stop mix and detection mix. Fluorescence was measured at 615 and 665 nm upon excitation at 340 nm in a Victor™ V5 fluorometer (Perkin Elmer, USA). The fluorescence emission ratio at 665 to 615 nm, proportional to the kinase activity, was plotted against the compound concentration to generate dose-response curves and IC50 values were determined using GraphPad Prism® 5 software.
The activity of PI3 kinase isoforms β, γ and δ were assayed in a similar manner to the assay protocol described above for PI3Kα, by substituting the appropriate p110/p85 isoform for the p110α/p85α. Compounds of formula (I) caused inhibition of PI3 kinase isoforms β, γ and δ as determined by these assays. For example, the compounds of Examples 3 and 21 each caused inhibition of PI3 kinase isoform β with IC50 values<500 nM. The compounds of Examples 3, 7, 21, 47, 48 and 49 each caused inhibition of PI3 kinase isoform γ with IC50 values<500 nM. The compounds of Example 3, 7, 47, 48, and 49 caused inhibition of PI3 kinase isoform δ with IC50 values<1 μM.
Background: In TR-FRET formats the signal depends on donor and acceptor labels being close together.

Another experiment concerns BT474 cells. The experiment in a line: XTT assay for cell viability, BT474 cells. It counts as cell-based. To be noted: Homo sapiens, BT-474, read-out: inhibition of BT474 cell proliferation, IC50. The method, then: Using a commercial kit from Sigma Aldrich (Catalog #X34251) and following its protocol, PC3 cells in the log phase of growth were employed and seeded at an optimal density of 1000 cell/well on to 96 well plates and incubated for 24 hours followed by the addition of compounds of formula (I) in serial dilutions. Compound dilutions were made in DMSO. The cells were incubated with the compounds of formula (I) for 96 hours and XTT tetrazolium dye (Sigma, USA) was subsequently added and incubated at 37° C. After the color formation, absorbance was measured at 465 nm in a Spectramax® Gemini spectrophotometer. EC50 values were calculated using a sigmoidal dose response curve fit in GraphPad Prism® v5 software. The tested compounds of formula (I) which caused inhibition of PC3 cell proliferation as determined by this assay protocol are shown in Table 2.
XTT assays for cell viability were also determined in U87MG, BT474 cells and T47D cells, in a similar manner to the protocol described above. The compounds cause inhibition of U87MG, BT474 and T47D cell proliferation as determined by these assays. For example, the compounds of Examples 3 and 7 caused inhibition of U87MG, BT474 and T47D cell proliferation with IC50 values<600 nM.
(Tetrazolium dyes change colour on reduction, which living cells bring about.)

Another experiment has as its system pAKT (T308). The experiment in a line: In vivo PK/PD study, U87MG tumor xenograft, pAKT (T308). The note with it: U87MG tumor-bearing xenograft mice, 50 mg/kg po. As for the experimental part:
(§1) PC3 cells are cultured at 37° C. in a 5% CO2 incubator using Hams F12 K medium. Ten million (10^7) cells are injected subcutaneously to the right flank region of athymic male mice (Harlan, age: 6-7 weeks, weight: about 20 g). Tumor bearing mice are randomized when the tumor volume reaches about 250 mm^3 and three mice are used per each time point. Test compounds of formula (I) are typically formulated in 40% HPCD in 1×PBS, pH 7.4 or in 10% Ethanol/40% Solutol/50% 50 mM aq. methanesulfonic acid and dosed orally at 50 mg/kg single dose (dose volume—10 mL/kg). Plasma and tumor samples are collected at 0 (vehicle control animals), 1, 4 and 24 hours post dosing. Blood is drawn (retro orbital) to a tube containing 0.2% EDTA for plasma collection. […] Tumor and plasma drug concentrations are measured for PK analysis using LC-MS.
(§2) Snap frozen tumor samples are pulverized in a mortar (Belart) containing liquid nitrogen and tumor powder is stored at −80° C. until analysis. […] The detection for pAKT is based on chemiluminescence and pS6RP is based on absorbance. […]
(§3) In vivo pharmacokinetic/pharmacodynamic (PK/PD) studies were carried out in a similar manner using U87MG tumor cells (glioma cancer cell line with a PTEN null mutation) and the corresponding tumor-bearing xenograft mice, and compounds of the invention were determined to be active in this assay. […]

A further experiment deals with pAKT (S473). Kind of experiment: In vivo PK/PD study, U87MG tumor xenograft, pAKT (S473). The note with it: U87MG tumor-bearing xenograft mice, 50 mg/kg po. As for the experimental part:
as §1, §2, §3

pIC50: −log10 of the molar value.

Chain of PI3 kinase isoform δ (O00329 whole entry, the tested form may be a part, canonical isoform): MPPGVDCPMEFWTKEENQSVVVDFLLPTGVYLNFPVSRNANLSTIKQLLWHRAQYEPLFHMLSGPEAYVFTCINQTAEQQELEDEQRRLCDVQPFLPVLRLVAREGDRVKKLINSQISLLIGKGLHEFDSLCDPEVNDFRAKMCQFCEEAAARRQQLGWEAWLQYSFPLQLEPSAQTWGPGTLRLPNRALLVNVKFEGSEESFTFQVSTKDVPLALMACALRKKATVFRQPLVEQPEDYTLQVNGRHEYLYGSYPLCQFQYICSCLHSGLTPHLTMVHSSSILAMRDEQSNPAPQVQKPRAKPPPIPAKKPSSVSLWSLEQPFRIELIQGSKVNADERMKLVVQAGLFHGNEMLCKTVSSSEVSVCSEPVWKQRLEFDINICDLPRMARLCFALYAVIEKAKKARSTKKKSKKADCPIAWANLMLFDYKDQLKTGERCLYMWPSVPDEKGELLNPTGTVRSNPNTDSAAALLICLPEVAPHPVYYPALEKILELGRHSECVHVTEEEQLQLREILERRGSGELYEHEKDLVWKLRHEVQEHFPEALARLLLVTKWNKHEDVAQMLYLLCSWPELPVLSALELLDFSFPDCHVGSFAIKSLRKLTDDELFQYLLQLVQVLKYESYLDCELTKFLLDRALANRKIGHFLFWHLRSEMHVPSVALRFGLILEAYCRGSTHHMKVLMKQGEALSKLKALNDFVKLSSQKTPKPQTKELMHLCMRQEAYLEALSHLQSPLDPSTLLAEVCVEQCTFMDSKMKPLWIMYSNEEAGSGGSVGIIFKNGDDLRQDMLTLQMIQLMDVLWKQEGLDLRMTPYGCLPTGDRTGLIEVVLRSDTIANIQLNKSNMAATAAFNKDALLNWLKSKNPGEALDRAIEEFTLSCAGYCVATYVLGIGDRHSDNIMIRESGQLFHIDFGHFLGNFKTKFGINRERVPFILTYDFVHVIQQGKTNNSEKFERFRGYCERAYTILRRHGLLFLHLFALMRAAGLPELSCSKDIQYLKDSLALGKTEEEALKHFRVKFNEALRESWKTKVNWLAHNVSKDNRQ
Chain of PI3 kinase isoform δ (P27986 whole entry partner, the tested form may be a part, canonical isoform): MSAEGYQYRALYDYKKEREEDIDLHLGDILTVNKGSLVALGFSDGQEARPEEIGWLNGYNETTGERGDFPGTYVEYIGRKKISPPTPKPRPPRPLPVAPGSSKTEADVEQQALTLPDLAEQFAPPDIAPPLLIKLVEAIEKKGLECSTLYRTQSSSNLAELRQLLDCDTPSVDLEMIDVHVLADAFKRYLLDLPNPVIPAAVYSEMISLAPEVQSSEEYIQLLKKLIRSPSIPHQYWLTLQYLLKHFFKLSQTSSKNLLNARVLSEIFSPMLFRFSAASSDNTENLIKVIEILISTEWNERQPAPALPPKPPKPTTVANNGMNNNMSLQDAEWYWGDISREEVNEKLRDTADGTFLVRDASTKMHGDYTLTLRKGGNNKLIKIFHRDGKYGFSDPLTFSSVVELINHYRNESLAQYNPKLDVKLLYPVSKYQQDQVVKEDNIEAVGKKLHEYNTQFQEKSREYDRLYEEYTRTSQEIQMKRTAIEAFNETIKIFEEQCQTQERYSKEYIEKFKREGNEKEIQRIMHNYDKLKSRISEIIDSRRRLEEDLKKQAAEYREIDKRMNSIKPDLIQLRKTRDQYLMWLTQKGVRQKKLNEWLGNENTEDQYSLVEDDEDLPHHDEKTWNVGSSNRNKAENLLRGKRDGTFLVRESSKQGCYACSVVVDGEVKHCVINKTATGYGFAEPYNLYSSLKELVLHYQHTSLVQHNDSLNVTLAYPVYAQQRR

As to `CC(=O)Nc1cccc(-c2cnc3c(N4CCOCC4)nc(-c4cnc(N)nc4)nc3c2)c1` [Example 3, N-(3-(2-(2-Aminopyrimidin-5-yl)-4-morpholinopyrido[3,2-d]pyrimidin-7-yl)-phenyl)acetamide], the results for the pIC50 on PI3 kinase isoform δ and with BT474 cells were greater than 6.00 and greater than 6.22, respectively. In addition, the “suppression of pAKT (T308)” value in the experiment with pAKT (T308) is “suppression”. The “suppression of pAKT (S473)” value in the experiment on pAKT (S473) is listed as “suppression”.
Turning to `Nc1ncc(-c2nc(N3CCOCC3)c3ncc(-c4cccc(NC(=O)C5CC5)c4)cc3n2)cn1` [Example 7, N-(3-(2-(2-Aminopyrimidin-5-yl)-4-morpholinopyrido[3,2-d]pyrimidin-7-yl)-phenyl)cyclopropanecarboxamide], the pIC50 was greater than 6.00 on PI3 kinase isoform δ and greater than 6.22 in the experiment with BT474 cells.
Turning to `N#CC1(C(=O)Nc2cccc(-c3cnc4c(N5CCOCC5)nc(-c5cnc(N)nc5)nc4c3)c2)CC1` [Example 61, N-(3-(2-(2-amino-pyrimidin-5-yl)-4-morpholinopyrido[3,2-d]pyrimidin-7-yl)phenyl)-1-cyanocyclopropane-carboxamide], the “suppression of pAKT (T308)” value in the experiment on pAKT (T308) is listed as “suppression”. For the same compound, the “suppression of pAKT (S473)” value in the experiment on pAKT (S473) is “suppression”.
